Experimental findings from patent publication US7311919B2, “Agents for treating osteoporosis and inhibiting osteoclast formation” (Simpson Biotech Co., Ltd., priority 2003, dated 2007) are described below.

The test has as its system osteoclasts. Nature of the test: Osteoclast formation in co-culture of myelocytes and osteoblasts (TRAP staining). The conditions noted are these: 2 U/ml. Type of test: cell-based. On the procedure: Myelocytes and osteoblasts were co-cultured in vitro and the numbers of osteoclasts formed were measured. Myelocytes will differentiate into osteoclasts expressing tartrate-resisted acidic phosphatase (TRAP) when vitamin D is present in the coculture. These osteoclasts could be identified by staining for TRAP. Therefore the development of osteoclasts could be assayed by co-culturing myelocytes with osteoblasts.
Osteoblasts and, myelocytes were co-cultured in 24-well plate. PTH (100 ng/ml), 1α, 25 (OH)2VD3 (10^−8 M), water extraction of the mycelium of C. Sinensis 3 mg/ml, 300 μg/ml, 30 μg/ml, 3 μg/ml or Elcatonin 2 U/ml were added. Samples were numbered No. 1˜No. 6. Each sample was cultured in 4 wells. Culture was maintained for 6 days with medium changed every two days.
After coculturing, TRAP-positive cells were stained to dark red color. The numbers of TRAP-positive osteoclasts that have more than 3 nucleuses were counted. The average numbers of osteoclasts from 4 samples were the number of osteoclasts.
The numbers of osteoclasts in the 1α, 25 (OH)2D3 sample was considered 100%. The percentage of osteoclasts formed of experimental group was calculated using formula 1. Student's t-test was used to examine the significance.
The formation of osteoclasts (%) osteoclast cell numbers/osteoclast cell numbers in medium with 1α,25(OH)2D3×100 (formula 1)

For Elcatonin, under “1α,25(OH)2D3 sample = 100%”, the “Formation of osteoclasts (%)” value worked out at 13.8%. The “Average Osteoclast cell numbers (n = 4)” value (6 days co-culture) is 113.0.
